Data taken from ChEMBL document CHEMBL3507680, “University of Dundee, Gates Library screen for HepG2 cell viability”.

Test: Human HepG2 cell viability assay in 384 well format
Format: toxicity, cell-based
Parameters: dose 125 nL, time 70.5 hour; cytotoxicity at 70.5 h: concentration not given beside the values
Settings: HepG2 cells, read-out: Inhibition

SMILES	cytotoxicity at 70.5 h [%]
COCCCNC(=O)C(C)(C)N(C)C1CCCC1	-0.184
O=C(CN1CCCC(c2ccn[nH]2)C1)Nc1nc2c(s1)CCC2 (stereo not drawn)	-2.76
Cc1ccc2cc(C(=O)N3CCCN(C)CC3)ccc2n1	-2.19
CC(CS(C)(=O)=O)NCc1cc(Cl)ccc1F (stereo not drawn)	19.9
CC(C)N(CC(N)=O)CC(=O)N(C1=CCCCC1)C1CC1	3.33
CC1CCCN1C1CCN(C(=O)c2cccc(F)c2)CC1 (stereo not drawn)	6.94
COc1ccc(Cc2nnc3n2N=C(C(C)(C)C)CS3)cc1	8.14
c1ccc2[nH]c(C3CCN(Cc4nnc(C5CC5)o4)CC3)cc2c1	-12.6
CCCN(C)c1ccc(C(=O)NCc2ccnc(C)n2)cc1	-10
Cc1ccc(NC(=O)CN2CCCNC2=O)c(SC(F)(F)F)c1	-7.48
CCOc1ccc(C#N)cc1NC(=O)N1CCC(N2CCCC2)C1 (stereo not drawn)	-9.59
CCCC1CCCN(C(=O)Nc2ccnc(C(=O)N(C)C)c2)CC1 (stereo not drawn)	-6.22
Cc1ccc(C2CSCCN2CC(=O)N2CCOCC2)cc1 (stereo not drawn)	-5.8
Cc1nc2ncnn2c(C)c1CCC(=O)Nc1cccn(C)c1=O	-15.3
Cc1nn(C)c(C)c1CCC(=O)Nc1cccn(C)c1=O	-3.26
Cc1noc(C)c1CNS(=O)(=O)N(C)Cc1ccc(Cl)cc1	-5.95
CNC(=O)C(C)CN(C)C(=O)Nc1cc(-n2cccc2)ccc1F (stereo not drawn)	-3.24
CN(CC(O)C1CC1)C(=O)Nc1ccc(F)c(-n2cccc2)c1 (stereo not drawn)	-2.43
Cc1cc(CCC(=O)N2CC[C@H](O)C2)ccc1Br	1.1
CC(C#N)CN(C)C(=O)c1cn(-c2ccc(Br)cc2)cn1 (stereo not drawn)	-1.57
CNC(=O)C(C)CN(C)C(=O)Nc1ccc(F)c(-n2cccc2)c1 (stereo not drawn)	0.178
Cc1noc(C)c1CNS(=O)(=O)N(C)Cc1ccccc1Br	-9.08
Cc1ncsc1CN(C)C(=O)CC1CCOc2ccccc21 (stereo not drawn)	22.4

SMILES	cytotoxicity at 70.5 h [%]
CC(NCc1cccc(S(=O)(=O)N(C)C)c1)c1cccnc1 (stereo not drawn)	-3.39
O=C(CN1CCN(C(=O)c2cccc(-c3ccoc3)c2)CC1)C1CC1	-5.66
CN(Cc1ccccn1)C(=O)CC1CCOc2ccccc21 (stereo not drawn)	-8.29
CN(CC(=O)N1CCCC1)Cc1nc2c(cnn2C)c(=O)[nH]1	-10.6
CCN(CC)C(=O)CN(C)Cc1nc2c(cnn2C)c(=O)[nH]1	-10.6
CC(C)C(=O)Nc1ncn(Cc2cccc(Br)c2)n1	-9.36
CCc1nnc2n1CCN(C(=O)c1ccc3c(c1)NC(=O)CO3)C2	-1.73
Cn1cnc2c1CCN(CCCOc1ccc(S(C)(=O)=O)cc1)C2	-11.2
CC(C)c1nnc2n1CCN(C(=O)c1ccc3c(c1)COC3)C2	-0.783
CSCC(=O)Nc1ncn(Cc2cccc(Br)c2)n1	-8.51
Cn1cnc2c1CCN(CC(O)c1ccc3c(c1)OCCO3)C2 (stereo not drawn)	9.43
Cc1cc(C)n(CC2CCCN2C(=O)Cc2csc(C)n2)n1 (stereo not drawn)	-1.11
Cn1cnc2c1CCN(CC(O)c1ccc(S(C)(=O)=O)cc1)C2 (stereo not drawn)	-8.26
O=C(O)c1ccc(S(=O)(=O)Nc2ccccc2F)c(F)c1	-11
Cc1cc(C)c(S(=O)(=O)Nc2ccccc2CC(F)(F)F)cc1C(=O)O	-8.62
CNC(=O)Cc1noc(Cc2ccc3c(c2)CCCC3)n1	12.5
Cc1ccc(Cl)c2c1C1(NC(=O)c3cccnc3N1)C(=O)N2 (stereo not drawn)	-5.73
Cn1cc(NC(=O)Nc2ccccn2)cc(Cl)c1=O	9.47
COC(=O)c1ccc(N(C)C2CCC2)nn1	-5.28
CN(c1ccc(C(N)=O)nn1)C1CCC1	-15.8
O=C(NCCc1nnc2n1CCCCC2)N1CCC2(CCOC2)C1 (stereo not drawn)	-5.08
CS(=O)(=O)Cc1nc(CN2CCCc3sccc3C2)cs1	-5.84
CCN(C)c1ccc(CNS(=O)(=O)C2CCOCC2)cc1F	-10.6

SMILES	cytotoxicity at 70.5 h [%]
CNC(=O)c1ccc(N(C)C2CCC2)nn1	9.71
CN(Cc1ccc(Cl)c(F)c1)C(=O)CCc1ccncc1	-6.42
CCCn1nnnc1CN(C)C(C)c1ccc(C)cc1 (stereo not drawn)	-5.6
CCCn1nnnc1CN(c1ccc(N2CCOCC2)cc1)C(C)C	-8.46
CS(=O)(=O)Cc1nc(CN2CCOc3ccccc3C2)cs1	-6.97
CN(Cc1ccc(Cl)c(F)c1)C(=O)c1ccncc1F	-6.79
Cc1cc(C)n(CC2CCCN2C(=O)Cc2cn3ccsc3n2)n1 (stereo not drawn)	-12.4
CCn1nc(C)c(S(=O)(=O)N(C)c2ccc(Cl)cn2)c1C	12
COC(=O)c1cccc(NCC(=O)NC(N)=O)c1	12.1
COc1cc(CNC(C)Cn2ccnc2)cc2c1OCCO2 (stereo not drawn)	21.5
O=C(COCc1ccccc1Cl)N1CCN(c2cnccn2)CC1	-6.52
NC(=O)C1(CNC(=O)CCc2ccc(Cl)s2)CCOCC1	-7.77
CNC(=O)C1CCCCN1C(=O)C1CCN(S(C)(=O)=O)CC1 (stereo not drawn)	-11.7
Cc1nc(CN2C[C@@H]3CN(C(=O)c4cnccn4)C[C@@H]3C2=O)cs1	-10.8
COCC(=O)N1CCC2(CCC2NC(=O)c2ccn(C)c2)CC1 (stereo not drawn)	-9.35
Cc1ccc(CN2Cc3cnn(C)c3C(COCC3CC3)C2)o1 (stereo not drawn)	2.56
Cc1noc([C@@H]2C[C@H]3OCC[C@H]3N(Cc3ccoc3)C2)n1	-6.19
CN(C)C(=O)COC1COC2(CCN(c3ncccn3)CC2)C1 (stereo not drawn)	-7.32
Cc1nc(CN2C[C@@H]3CN(C(=O)c4ccoc4C)C[C@@H]3C2=O)cs1	-10
CCOCC1CN(C(=O)Cc2cccs2)Cc2ccnn2C1 (stereo not drawn)	-9.44
Cc1nc(CN2C(=O)CC[C@@H]3[C@H]2CCN3C(=O)c2ccc[nH]2)cs1	-7.13
CN(Cc1cccnc1)CC1CN(C(N)=O)Cc2nccn2C1 (stereo not drawn)	-2.38
CC(=O)N1CC2(CCNCC2)c2cc(C)ccc21	20.4

SMILES	cytotoxicity at 70.5 h [%]
O=C(CC1CC1)NCc1cn2c(n1)CN(C(=O)C1CCOCC1)CC2	-4.63
COCC(=O)N1Cc2nccn2CC(CN(C)Cc2cccnc2)C1 (stereo not drawn)	-7.06
COCc1cncc2c1CCN(C(=O)c1ccoc1C)C2	-2.3
Cc1ccc2c(c1)C1(CCNCC1)CN2C(=O)C(C)C	18.3
CCCS(=O)(=O)N1C[C@H]2C[C@H](C(=O)N(C)C)[C@@H](C1)O2	-13.7
CC(Cn1ccnc1)NCc1cc(Br)c2c(c1)OCO2 (stereo not drawn)	12.5
COc1cc(CNC(C)Cn2ccnc2)cc2c1OCO2 (stereo not drawn)	-10.9
COc1cc(CNCCn2ccnc2)cc2c1OCO2	1.27
c1cnc(NCc2cncc3c2CCN(Cc2ccsc2)C3)nc1	-7.81
c1cnc(NCc2cncc3c2CCN(Cc2ccoc2)C3)nc1	-8.36
CC(C)NC(=O)N1Cc2nccn2CC(CN2CCCC2)C1 (stereo not drawn)	-6.64
CNC(=O)COC1COC2(CCN(c3ccc(C#N)cc3)CC2)C1 (stereo not drawn)	-5.98
CC(=O)NCC(=O)N1Cc2nccn2CC(CN(C)C(C)C)C1 (stereo not drawn)	-13.6
c1coc(COCc2ncn3c2CN(Cc2cccs2)CCC3)c1	-2.67
Cc1nc(CN2C[C@@H]3CN(C(=O)[C@H]4CCCO4)C[C@@H]3C2=O)cs1	-8.74
CCc1ccc(CN2C[C@@H](c3nc(C)no3)C[C@H]3OCC[C@H]32)o1	-3.87
c1csc(CN2CCCn3cnc(COCC4CC4)c3C2)c1	0.853
Cc1nc(CN2CCc3ncnc(-c4ccccc4)c3CC2)cs1	-9.56
CC(C)OCc1ncn2c1CN(Cc1nccs1)CCC2	-6.03
O=C1CO[C@@H]2CN(CC3CCOC3)C[C@H]2N1Cc1cccc(F)c1 (stereo partly drawn)	-6.08
Cc1noc([C@H]2C[C@H]3OCC[C@H]3N(Cc3ccc(F)cc3)C2)n1	-8.23
Cc1noc([C@@H]2C[C@H]3OCC[C@H]3N(Cc3sccc3C)C2)n1	4.03
CC(=O)NCC(=O)N1CCC2(CC1)NC(=O)CC2c1cccnc1 (stereo not drawn)	-1.28

SMILES	cytotoxicity at 70.5 h [%]
Cc1nc(CN2C(=O)CC[C@@H]3[C@H]2CCN3C(=O)c2ccccn2)cs1	-4.48
O=C(CC1CC1)NCc1cn2c(n1)CN(Cc1nccs1)CC2	-6.29
Cc1ncnc2c1CCN(C(=O)c1ccncc1F)CC2	-8.13
Cn1cc(C2CC(=O)NC23CCN(C(=O)c2cccnc2)CC3)cn1 (stereo not drawn)	-3.63
O=C(CC1CC1)NCc1cn2c(n1)CN(Cc1cccc(F)c1)CC2	-3.4
CCOc1ncnc2c1CCN(C(=O)c1ccncc1F)CC2	-3.16
Cc1cc(CN2C[C@@H]3COC[C@]3(CNC(=O)N3CCCC3)C2)no1	0.0997
O=C1CC(c2ccccc2)C2(CCN(C(=O)c3ccncc3F)CC2)N1 (stereo not drawn)	-5.44
CCn1cc2c(n1)CN(Cc1ccc(F)cc1)CC2COCC1CC1 (stereo not drawn)	-1.9
O=C(c1cnccn1)N1C[C@@H]2CCN(c3cccnc3)C[C@@H]2C1	-9.4
Cn1cccc1C(=O)N1C[C@@H]2CCN(c3cccnc3)C[C@@H]2C1	-7.6
CCOCCN1Cc2cnn(C)c2C(COCC)C1 (stereo not drawn)	8.6
O=C(CC1CC1)NCc1cn2c(n1)CN(Cc1cccnc1)CC2	-8.95
c1cnn(Cc2cnc3n2CCN(CC2CCCCC2)C3)c1	-6.48
c1ccc(CN2CCc3ncnc(-c4cccnc4)c3CC2)nc1	-7.48
c1cnc(N2CCCC3(CCN(CC4CC4)C3)C2)nc1 (stereo not drawn)	-6.19
CCS(=O)(=O)NC[C@]12COC[C@H]1CN(Cc1ccccn1)C2	-3.72
Cc1cccc(CN2C(=O)CC[C@@H]3[C@H]2CCN3Cc2ccc(F)cc2)n1	-4.94
Cc1noc(C)c1CN1Cc2ccnn2CC(C(=O)NCC2CC2)C1 (stereo not drawn)	-6.51
O=C(O)c1cc2c(nc1-c1ccoc1)CCN(Cc1ccco1)CC2	-14.2
COCCN1CCc2cc(C(=O)O)c(-c3ccoc3)nc2CC1	-12.3
